Molecules are shown by their SMILES.

A word on the IC50: it is the concentration that inhibits the measured activity by half. The term IC90 denotes the point of the concentration-response curve where the effect stands at 90%.

The assay concerns Plasmodium berghei. The experiment in a line: Luciferase/luciferin-expressing antifolate-resistant parasites were used to infect a culture of HepG2 cells that were pre-incubated with compounds. Infected hepatocytes emit light due to the luciferase reaction. Assay results are presented as the percent inhibition of light emission compared to control. […]. It is filed as functional. The settings on record: sporozoite; for IC90: read-out: LUCIFERASE INFECTION ASSAY - IC90.

The mark [1] stands for this setting: read-out: LUCIFERASE INFECTION ASSAY - IC50.

On to `CN(C)S(=O)(=O)c1ccc(N2CCCC2)c(C(=O)Nc2nc(-c3ccccn3)cs2)c1`, for which the IC90 stood at 9.7 µM. In addition, the IC50 (HEPG2TOX_HILL_SLOPE 8.6, HEPG2TOX_R_SQUARED 0.463, PBLUC_HILL_SLOPE 5.89, PBLUC_R_SQUARED 0.378, read-out: LUCIFERASE INFECTION ASSAY - IC50) was found to be 6.68 µM.
With `CCOc1ccccc1C(=O)N[C@H](C(=O)Nc1sc2c(c1C(N)=O)CCC2)C(C)C`, the IC90 is 9.93 µM. For the same molecule, the IC50 (HEPG2TOX_HILL_SLOPE 7.99, HEPG2TOX_R_SQUARED 0.813, PBLUC_HILL_SLOPE 17.7, PBLUC_R_SQUARED 0.214, read-out: LUCIFERASE INFECTION ASSAY - IC50) is 8.77 µM.
For `O=C(C1CCCCC1)N1N=C2/C(=C/c3ccco3)CCCC2C1c1ccco1` (stereo unspecified), the IC90 was above 10 µM. Further, under setting [1], the IC50 was above 10 µM.
For the molecule `CC(=O)N1CCN(c2nc(CC(C)C)c3c(c2C#N)CCCC3)CC1`, the IC90 was above 9.69 µM. Moreover, the IC50 (FFLUC_HILL_SLOPE 6.37, FFLUC_R_SQUARED 0.032, PBLUC_HILL_SLOPE 12.2, PBLUC_R_SQUARED 0.0332, read-out: LUCIFERASE INFECTION ASSAY - IC50) worked out at 8.99 µM.
As to `Cc1cc(C)c(S(=O)(=O)Nc2cc3c(C(=O)Nc4ccccc4)c(C)oc3c3ccccc23)c(C)c1`, the IC90 is above 10 µM. For the same molecule, the IC50 under setting [1] was above 10 µM.
As for `Cc1noc(-c2ccc(Cl)cc2)c1C(=O)ON=C(N)c1ccc(C(C)(C)C)cc1`, the IC90 is above 8.01 µM. For the same molecule, the IC50 (FFLUC_HILL_SLOPE 0.0669, FFLUC_R_SQUARED 0.264, read-out: LUCIFERASE INFECTION ASSAY - IC50) was above 8.01 µM.
With `FC(F)(F)Oc1cccc(-c2[nH]nc3ccnc(-c4ccsc4)c23)c1`, the 90% effect concentration (IC90) was above 10 µM. Also, under setting [1], the IC50 was above 10 µM.
Take `COc1ccccc1-n1c(C)cc(/C=C(\C#N)c2nnc3n2CCCCC3)c1C`: the IC90 is above 10 µM. Moreover, the IC50 (PBLUC_HILL_SLOPE 15.5, PBLUC_R_SQUARED 0.0701, read-out: LUCIFERASE INFECTION ASSAY - IC50) is 9.71 µM.
For the molecule `N=C(N)NN=C1CCCCCCCCCCC1`, the IC90 was above 12 µM. The IC50 (HEPG2TOX_HILL_SLOPE 5.24, 2.64, HEPG2TOX_R_SQUARED 0.916, 0.913, PBLUC_HILL_SLOPE 15.5, 3.20, PBLUC_R_SQUARED 0.175, 0.492, read-out: LUCIFERASE INFECTION ASSAY - IC50) is 11.7 µM.
Consider `CCCNC(=O)c1c(NC(=O)c2cccc(OC)c2)nc2ccc(C)cn12`, for which the IC90 turned out to be 8.77 µM. Under “HEPG2TOX_HILL_SLOPE 7.34, HEPG2TOX_R_SQUARED 0.277, PBLUC_HILL_SLOPE 3.84, PBLUC_R_SQUARED 0.328, read-out: LUCIFERASE INFECTION ASSAY - IC50”, the IC50 came to 4.95 µM.
Take `CSc1ncc(C(=O)OCc2cc(F)cc3c2OCOC3)n1-c1ccc(F)cc1`: the IC90 is above 10 µM. For the same molecule, the IC50 (PBLUC_HILL_SLOPE 2.14, PBLUC_R_SQUARED 0.0712, read-out: LUCIFERASE INFECTION ASSAY - IC50) is 5.17 µM.
For `COc1ccc(C(=O)C2CCN(C(=O)C3CC(=O)N(c4ccc(C)c(F)c4)C3)CC2)cc1` (stereo unspecified), the IC90 is above 10 µM. The IC50 (PBLUC_HILL_SLOPE 15.1, PBLUC_R_SQUARED 0.128, read-out: LUCIFERASE INFECTION ASSAY - IC50) was found to be 9.94 µM.
As to `CS/C(Nc1cccc(C(F)(F)F)c1)=C(/C#N)S(=O)(=O)c1ccc(Cl)cc1`, the IC90 is above 7.62 µM. Moreover, the IC50 (FFLUC_HILL_SLOPE 30.1, FFLUC_R_SQUARED 0.771, HEPG2TOX_HILL_SLOPE 1.92, HEPG2TOX_R_SQUARED 0.988, PBLUC_HILL_SLOPE 2.74, PBLUC_R_SQUARED 0.0319, read-out: LUCIFERASE INFECTION ASSAY - IC50) amounted to 4.34 µM.
As for `COc1ccc(F)cc1CN(Cc1ccc(C(=O)NC2CC2)cc1)Cc1ccco1`, the IC90 stood at 0.722 µM. Also, for the setting “HEPG2TOX_HILL_SLOPE 2.87, HEPG2TOX_R_SQUARED 0.785, PBLUC_HILL_SLOPE 1.38, 16.4, PBLUC_R_SQUARED 0.804, 0.717, read-out: LUCIFERASE INFECTION ASSAY - IC50”, the IC50 worked out at 0.286 µM.
On to `CC(=O)N(/N=C/c1ccc(Cl)cc1)C1=NN(C(C)=O)C(c2ccc(Cl)cc2)S1` (stereo unspecified), for which the IC90 is above 7.58 µM. Besides, the IC50 under setting [1] is above 7.58 µM.
In the case of `O=C(NCCO)c1cccc(-c2ccc3ncc(-c4cccnc4)n3n2)c1`, the IC90 stood at 3.93 µM. Also, the IC50 (HEPG2TOX_HILL_SLOPE 1.56, HEPG2TOX_R_SQUARED 0.733, PBLUC_HILL_SLOPE 4.25, PBLUC_R_SQUARED 0.42, read-out: LUCIFERASE INFECTION ASSAY - IC50) was determined as 2.34 µM.
With `O=C(NCCSCc1c(F)cccc1Cl)c1cccs1`, the IC90 was above 10 µM. Besides, the IC50 (PBLUC_HILL_SLOPE 2.01, PBLUC_R_SQUARED 0.48, read-out: LUCIFERASE INFECTION ASSAY - IC50) turned out to be 3.94 µM.
On to `CC1CCc2sc(C(=O)N(C)Cc3nc(=O)c4ccccc4[nH]3)cc2C1` (stereo unspecified), for which the IC90 worked out at 6.74 µM. In addition, the IC50 (PBLUC_HILL_SLOPE 2.24, PBLUC_R_SQUARED 0.489, read-out: LUCIFERASE INFECTION ASSAY - IC50) came to 2.52 µM.
For `O=C(Nc1cc(S(=O)(=O)N2CCCCCC2)ccc1OCC(F)(F)F)c1cccc2c[nH]nc12`, the IC90 was above 10 µM. The IC50 under setting [1] was above 10 µM.
On to `O=C1C=CC(=O)N1c1ccc(F)c(Cl)c1`, for which the IC90 is above 14.6 µM. Further, the IC50 (FFLUC_HILL_SLOPE 2.09, FFLUC_R_SQUARED 0.475, HEPG2TOX_HILL_SLOPE 6.94, HEPG2TOX_R_SQUARED 0.217, PBLUC_HILL_SLOPE 8.9, PBLUC_R_SQUARED 0.496, read-out: LUCIFERASE INFECTION ASSAY - IC50) turned out to be 13.6 µM.
With `Cc1ccsc1/C=N/Nc1ccc([N+](=O)[O-])cc1S(=O)(=O)Nc1ccc(Cl)cc1`, the IC90 turned out to be 3.77 µM. Moreover, the IC50 (HEPG2TOX_HILL_SLOPE 2.24, HEPG2TOX_R_SQUARED 0.991, PBLUC_HILL_SLOPE 12.9, PBLUC_R_SQUARED 0.191, read-out: LUCIFERASE INFECTION ASSAY - IC50) stood at 3.18 µM.
`Cc1ccc(NC(=O)c2snnc2C)cc1Cl`: the IC90 is above 12.3 µM. The IC50 (HEPG2TOX_HILL_SLOPE 16.5, HEPG2TOX_R_SQUARED 0.725, read-out: LUCIFERASE INFECTION ASSAY - IC50) is above 12.3 µM.
`Cc1oc2c(c1C(=O)N1CCC(C)CC1)C(=O)c1ccccc1C2=O`: the IC90 was above 10 µM. In addition, the IC50 (HEPG2TOX_HILL_SLOPE 3.97, HEPG2TOX_R_SQUARED 0.955, PBLUC_HILL_SLOPE 1.55, PBLUC_R_SQUARED 0.65, read-out: LUCIFERASE INFECTION ASSAY - IC50) is 2.73 µM.
With `CCOc1ccc(C(C)=O)cc1CSc1nc2ccccc2n1-c1cccc(C)c1`, the IC90 was above 10 µM. The IC50 (PBLUC_HILL_SLOPE 3.51, PBLUC_R_SQUARED 0.141, read-out: LUCIFERASE INFECTION ASSAY - IC50) is 7.59 µM.
`Clc1cccc(Nc2ncc(-c3ccc4c(c3)OCCCO4)s2)c1`: the IC90 turned out to be 3.49 µM. Where the note is “PBLUC_HILL_SLOPE 0.775, PBLUC_R_SQUARED 0.83, read-out: LUCIFERASE INFECTION ASSAY - IC50”, the IC50 turned out to be 0.205 µM.
With `COc1ccc(-c2cc([N+](=O)[O-])ccc2OC(C)C(=O)N2CCC(C)CC2)cc1` (stereo unspecified), the IC90 was found to be 4.24 µM. For the same molecule, under “PBLUC_HILL_SLOPE 7.12, PBLUC_R_SQUARED 0.553, read-out: LUCIFERASE INFECTION ASSAY - IC50”, the IC50 was 3.11 µM.
For the molecule `CC(C)CNC1=C(Cl)C(=O)c2ccccc2C1=O`, the IC90 was above 12.5 µM. Also, the IC50 (PBLUC_HILL_SLOPE 2.71, PBLUC_R_SQUARED 0.283, read-out: LUCIFERASE INFECTION ASSAY - IC50) turned out to be 11.4 µM.
Consider `Cc1[nH]nc2ccnc(-c3cccc(OC(F)(F)F)c3)c12`, for which the IC90 is above 10 µM. Further, the IC50 under setting [1] was above 10 µM.

For the origin of these results see ChEMBL document CHEMBL4483862, “Open-source discovery of chemical leads for next-generation chemoprotective antimalarials” (2018).
